Reference: ChEMBL document CHEMBL6096731, “Structure-Guided Optimization and Preclinical Evaluation of 6-O-Benzylguanine-Based Pin1 Inhibitor for Hepatocellular Carcinoma Treatment” (J Med Chem, 2025)
Activity calls are given as the source filed them. No cut-off for these calls is given here.

Key:
[1] = biological target: T1, Peptidyl-prolyl cis-trans isomerase NIMA-interacting 1 (Homo sapiens, UniProt Q13526); test: Inhibition of full length pin1 (unknown origin) expressed in Escherichia coli
[2] = Antiproliferative activity against human HCC cells assessed as cell viability incubated for 72 hrs by alamar blue dye based assay; type: toxicity; conditions: HCC cells
[3] = biological target: Peptidyl-prolyl cis-trans isomerase NIMA-interacting 4 (Homo sapiens) (UniProt Q9Y237); test: Inhibition of full length pin4 (unknown origin) expressed in Escherichia coli
Chain of Peptidyl-prolyl cis-trans isomerase NIMA-interacting 4 (Homo sapiens) (Q9Y237 whole entry): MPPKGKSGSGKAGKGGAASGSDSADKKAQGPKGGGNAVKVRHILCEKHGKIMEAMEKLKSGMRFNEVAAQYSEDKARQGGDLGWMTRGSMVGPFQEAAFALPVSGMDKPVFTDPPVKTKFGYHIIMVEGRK

[4] = organism: Homo sapiens; test: Inhibition of FKBP12 (unknown origin) expressed in Escherichia coli
[5] = biological target: Peptidyl-prolyl cis-trans isomerase A (Homo sapiens) (UniProt P62937); test: Inhibition of Cyclophilin A (unknown origin) expressed in Escherichia coli
Chain of Peptidyl-prolyl cis-trans isomerase A (Homo sapiens) (P62937 whole entry, looked up): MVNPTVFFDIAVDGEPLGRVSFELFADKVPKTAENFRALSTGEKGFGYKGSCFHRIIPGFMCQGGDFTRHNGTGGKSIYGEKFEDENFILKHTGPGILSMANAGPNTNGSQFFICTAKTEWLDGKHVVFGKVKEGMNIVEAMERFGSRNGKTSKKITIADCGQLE

[6] = biological target: T1, Peptidyl-prolyl cis-trans isomerase NIMA-interacting 1; test: Binding affinity to GST-tagged pin1 (unknown origin) assessed as thermal stabilization at 1 uM at 48 to 58 degreeC by cellular thermal shift assay
[7] = biological target: T1, Peptidyl-prolyl cis-trans isomerase NIMA-interacting 1; test: Binding affinity to GST-tagged pin1 (unknown origin) assessed as dissociation constant by SPR analysis
[8] = biological target: T1, Peptidyl-prolyl cis-trans isomerase NIMA-interacting 1; test: Inhibition of pin1 in human SK-HEP1 cells at 5 uM by mass spectrometry analysis; type: cell-based
[9] = Chemical stability of compound at pH 7 measured after 24 hrs by HPLC analysis; type: physicochemical; conditions: buffer, pH 7, 24 h
[10] = Chemical stability of compound by HPLC analysis; type: physicochemical
[11] = system: SK-HEP1; test: Antiproliferative activity human SK-HEP1 cells assessed as cell viability measured up to 120 hrs; type: functional, cell-based
[12] = system: SK-HEP1; test: Antiproliferative activity human SK-HEP1 cells assessed as cell viability measured at 96 hrs; type: functional, cell-based
[13] = system: SK-HEP1; test: Antiproliferative activity human SK-HEP1 cells assessed as cell viability measured at 120 hrs; type: functional, cell-based
[14] = system: SK-HEP1; test: Antiproliferative activity human SK-HEP1 cells assessed as inhibition of cell proliferation incubated for 120 hrs; type: functional, cell-based; conditions: dose <= 2.0 µM
[15] = system: Hep 3B2; test: Antiproliferative activity human Hep3B cells assessed as inhibition of cell proliferation incubated for 120 hrs; type: functional, cell-based
[16] = system: SK-HEP1; test: Induction of cell cycle arrest in human SK-HEP1 cells assessed as accumulation of cells at S phase by PI staining based flow cytometry analysis; type: functional
[17] = system: HCC; test: Induction of apoptosis in human HCC cells at 5 uM by Annexin V/FITC staining based flow cytometry analysis; type: functional, cell-based
[18] = system: SK-HEP1; test: Inhibition of cell migration in human SK-HEP1 cells at 5 uM incubated for 24 hrs by crystal violet staining based microscopic analysis; type: functional
[19] = system: SK-HEP1; test: Inhibition of cell migration in human SK-HEP1 cells at 5 uM incubated for 24 hrs by wound healing assay; type: functional, cell-based
[20] = biological target: T1, Peptidyl-prolyl cis-trans isomerase NIMA-interacting 1; test: Inhibition of pin1 in human SK-HEP1 cells assessed as reduction in c-myc level at 5 uM incubated for 24 hrs by immunoblotting analysis; type: cell-based
[21] = biological target: T1, Peptidyl-prolyl cis-trans isomerase NIMA-interacting 1; test: Inhibition of pin1 in human SK-HEP1 cells assessed as reduction in beta-catenin level at 5 uM incubated for 24 hrs by immunoblotting analysis; type: cell-based
[22] = Drug localization in nucleus of human SK-HEP1 cells at 5 uM incubated for 24 hrs by Hoechst 33342 staining based fluorescence microscopic analysis; type: ADME, subcellular; conditions: sk-hep1, 24 h
[23] = system: SK-HEP1; test: Upregulation of miR-29b expression in human SK-HEP1 cells at 5 uM incubated for 36 hrs by RT-PCR analysis; type: functional, cell-based
[24] = system: SK-HEP1; test: Upregulation of miR-122 expression in human SK-HEP1 cells at 5 uM incubated for 36 hrs by RT-PCR analysis; type: functional, cell-based
[25] = system: SK-HEP1; test: Upregulation of miR-146a expression in human SK-HEP1 cells at 5 uM incubated for 36 hrs by RT-PCR analysis; type: functional, cell-based
[26] = system: SK-HEP1; test: Upregulation of let7a expression in human SK-HEP1 cells at 5 uM incubated for 36 hrs by RT-PCR analysis; type: functional, cell-based
[27] = system: SK-HEP1; test: Antiproliferative activity against human SK-HEP1 cells transfected with human pin1 assessed as cell viability at 5 uM incubated for 72 hrs; type: functional, cell-based
[28] = system: SK-HEP1; test: Antitumor activity against human SK-HEP1 cells xenografted in female BALB/c mouse assessed as reduction in tumor growth at 2.5 mg/kg, po measured every 4 days; type: functional, organism-based; conditions: time 4.0 day
[29] = Toxicity in female BALB/c mouse implanted with human SK-HEP1 cells assessed as effect on body weight at 2.5 mg/kg, po measured every 4 days; type: organism-based; conditions: in vivo, 96 h, time 4 day
[30] = system: SK-HEP1; test: Antitumor activity against human SK-HEP1 cells xenografted in female BALB/c mouse assessed as downregulation of c-myc level at 2.5 mg/kg, po measured every 4 days by immunoblotting analysis; type: functional, organism-based; conditions: time 4.0 day
[31] = system: SK-HEP1; test: Antitumor activity against human SK-HEP1 cells xenografted in female BALB/c mouse assessed as downregulation of beta-catenin level at 2.5 mg/kg, po measured every 4 days by immunoblotting analysis; type: functional, organism-based; conditions: time 4.0 day
[32] = biological target: Peptidyl-prolyl cis-trans isomerase NIMA-interacting 1 (Mus musculus) (UniProt Q9QUR7); test: Binding affinity to mouse pin1
Chain of Peptidyl-prolyl cis-trans isomerase NIMA-interacting 1 (Mus musculus) (Q9QUR7 whole entry): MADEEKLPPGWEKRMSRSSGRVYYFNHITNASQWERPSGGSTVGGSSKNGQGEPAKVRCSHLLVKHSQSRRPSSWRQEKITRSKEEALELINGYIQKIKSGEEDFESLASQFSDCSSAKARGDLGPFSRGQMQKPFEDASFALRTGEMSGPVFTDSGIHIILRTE

[33] = system: SK-HEP1; test: Antitumor activity against human SK-HEP1 cells xenografted in c-Myc/Alb-Cre transgenic female BALB/c mouse model assessed as downregulation of beta-catenin level in liver at 2.5 mg/kg, po measured every 4 days by immunoblotting analysis; type: functional, organism-based; conditions: time 4.0 day
[34] = system: SK-HEP1; test: Antitumor activity against human SK-HEP1 cells xenografted in c-Myc/Alb-Cre transgenic female BALB/c mouse model assessed as downregulation of c-myc level in liver at 2.5 mg/kg, po measured every 4 days by immunoblotting analysis; type: functional, organism-based; conditions: time 4.0 day
[35] = Drug distribution in BALB/c mouse liver measured after 24 hrs by HPLC analysis; type: ADME, tissue-based; conditions: in vivo
[36] = Drug distribution in BALB/c mouse tumor measured after 24 hrs by HPLC analysis; type: ADME, tissue-based, Neoplasm; conditions: in vivo
[37] = system: SK-HEP1; test: Antitumor activity against human SK-HEP1 cells xenografted in female BALB/c mouse assessed as increase in pin1 level in brain at 2.5 mg/kg, po measured every 4 days; type: functional, organism-based; conditions: time 4.0 day
[38] = system: SK-HEP1; test: Antitumor activity against human SK-HEP1 cells xenografted in female BALB/c mouse assessed as increase in pin1 level in liver at 2.5 mg/kg, po measured every 4 days; type: functional, organism-based; conditions: time 4.0 day
[39] = system: SK-HEP1; test: Antitumor activity against human SK-HEP1 cells xenografted in female BALB/c mouse assessed as increase in pin1 level in spleen at 2.5 mg/kg, po measured every 4 days; type: functional, organism-based; conditions: time 4.0 day
[40] = system: SK-HEP1; test: Antitumor activity against human SK-HEP1 cells xenografted in female BALB/c mouse assessed as increase in pin1 level in kidney at 2.5 mg/kg, po measured every 4 days; type: functional, organism-based; conditions: time 4.0 day
[41] = system: SK-HEP1; test: Antitumor activity against human SK-HEP1 cells xenografted in female BALB/c mouse assessed as increase in pin1 level in heart at 2.5 mg/kg, po measured every 4 days; type: functional, organism-based; conditions: time 4.0 day
[42] = system: SK-HEP1; test: Antitumor activity against human SK-HEP1 cells xenografted in female BALB/c mouse assessed as increase in pin1 level in tumor at 2.5 mg/kg, po measured every 4 days; type: functional, organism-based; conditions: time 4.0 day
[43] = Metabolic stability in mouse microsomes measured after 120 mins; type: ADME, Liver, Microsome; conditions: 2 h
[44] = Toxicity in c-Myc/Alb-Cre transgenic mouse assessed as effect on ALT level at 2.5 mg/kg, po; type: organism-based; conditions: in vivo
[45] = Toxicity in c-Myc/Alb-Cre transgenic mouse assessed as effect on AST level at 2.5 mg/kg, po; type: organism-based; conditions: in vivo
[46] = Toxicity in c-Myc/Alb-Cre transgenic mouse assessed as effect on TP level at 2.5 mg/kg, po; type: organism-based; conditions: in vivo
[47] = Toxicity in c-Myc/Alb-Cre transgenic mouse assessed as effect on ALP level at 2.5 mg/kg, po; type: organism-based; conditions: in vivo
[48] = Toxicity in c-Myc/Alb-Cre transgenic mouse assessed as effect on TBIL level at 2.5 mg/kg, po; type: organism-based; conditions: in vivo
[49] = Toxicity in c-Myc/Alb-Cre transgenic mouse assessed as effect on ALB level at 2.5 mg/kg, po; type: organism-based; conditions: in vivo
[50] = Toxicity in c-Myc/Alb-Cre transgenic mouse assessed as heart damage at 2.5 mg/kg, po; type: organism-based; conditions: in vivo
[51] = Toxicity in c-Myc/Alb-Cre transgenic mouse assessed as liver damage at 2.5 mg/kg, po; type: organism-based; conditions: in vivo
[52] = Toxicity in c-Myc/Alb-Cre transgenic mouse assessed as spleen damage at 2.5 mg/kg, po; type: organism-based; conditions: in vivo
[53] = Toxicity in c-Myc/Alb-Cre transgenic mouse assessed as lung damage at 2.5 mg/kg, po; type: organism-based; conditions: in vivo
[54] = Toxicity in c-Myc/Alb-Cre transgenic mouse assessed as kidney damage at 2.5 mg/kg, po; type: organism-based; conditions: in vivo
[55] = biological target: Voltage-gated inwardly rectifying potassium channel KCNH2 (Homo sapiens, UniProt Q12809)
Chain of Voltage-gated inwardly rectifying potassium channel KCNH2 (Q12809 whole entry): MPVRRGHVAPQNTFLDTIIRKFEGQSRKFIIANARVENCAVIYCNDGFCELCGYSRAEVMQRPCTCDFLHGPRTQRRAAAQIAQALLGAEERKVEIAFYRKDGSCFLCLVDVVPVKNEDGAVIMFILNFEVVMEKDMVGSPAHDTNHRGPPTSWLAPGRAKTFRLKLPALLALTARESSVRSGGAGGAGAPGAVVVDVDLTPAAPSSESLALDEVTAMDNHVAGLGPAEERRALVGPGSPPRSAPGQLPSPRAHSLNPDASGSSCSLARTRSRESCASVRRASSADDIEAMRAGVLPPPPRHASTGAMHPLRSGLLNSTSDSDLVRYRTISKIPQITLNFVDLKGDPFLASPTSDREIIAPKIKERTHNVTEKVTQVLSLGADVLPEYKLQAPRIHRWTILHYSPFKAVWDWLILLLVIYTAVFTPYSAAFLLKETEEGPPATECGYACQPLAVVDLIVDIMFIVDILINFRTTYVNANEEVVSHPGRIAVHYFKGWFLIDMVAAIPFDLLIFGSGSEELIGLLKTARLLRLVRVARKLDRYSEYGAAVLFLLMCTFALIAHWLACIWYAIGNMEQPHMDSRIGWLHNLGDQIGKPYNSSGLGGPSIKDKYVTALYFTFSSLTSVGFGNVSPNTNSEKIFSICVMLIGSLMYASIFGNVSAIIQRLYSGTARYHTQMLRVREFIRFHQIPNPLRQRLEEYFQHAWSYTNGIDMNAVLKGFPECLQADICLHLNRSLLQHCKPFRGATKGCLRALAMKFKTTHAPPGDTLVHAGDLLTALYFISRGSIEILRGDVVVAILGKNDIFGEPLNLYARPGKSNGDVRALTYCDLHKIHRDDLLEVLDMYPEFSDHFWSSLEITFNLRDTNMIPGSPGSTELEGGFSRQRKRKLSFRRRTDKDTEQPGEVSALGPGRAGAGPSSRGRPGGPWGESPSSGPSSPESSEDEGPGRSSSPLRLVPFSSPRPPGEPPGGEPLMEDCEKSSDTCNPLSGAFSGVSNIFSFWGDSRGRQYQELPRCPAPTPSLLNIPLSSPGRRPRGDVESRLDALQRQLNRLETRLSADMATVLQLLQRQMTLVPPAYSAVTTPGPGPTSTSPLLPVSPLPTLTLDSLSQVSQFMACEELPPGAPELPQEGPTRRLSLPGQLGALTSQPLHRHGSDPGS

T1 sequence (Q13526 whole entry): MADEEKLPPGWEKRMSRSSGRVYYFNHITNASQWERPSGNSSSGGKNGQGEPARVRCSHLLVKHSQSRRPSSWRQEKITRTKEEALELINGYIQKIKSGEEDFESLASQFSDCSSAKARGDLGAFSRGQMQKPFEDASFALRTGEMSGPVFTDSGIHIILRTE

Q: What does the source list for `Nc1nc(OCc2ccc3c(c2)OCO3)c2nc[nH]c2n1`?
A: IC50 [1]: 64.4 nM; IC50 at 72 h [2]: 2600 nM; inhibition [3]: inactive; inhibition [4]: inactive; inhibition [5]: inactive; Activity [6]: Active; Kd [7]: 154 nM; inhibition [8]: Active; Stability [9]: Stable; Stability [10]: Stable; Activity [11]: Active; Activity [12]: Active; Activity [13]: Active; Activity [14]: Active; Activity [15]: Active; Activity [16]: Active; Activity [17]: Active; inhibition [18]: Active; inhibition [19]: Active; inhibition [20]: Active; inhibition [21]: Active; Drug uptake [22]: Active; Activity [23]: Active; Activity [24]: Active; Activity [25]: Active; Activity [26]: Active; Activity [27]: Active; Activity [28]: Active; Activity [29]: Non-toxic; Activity [30]: Active; Activity [31]: Active; Activity [32]: Active; Activity [33]: Active; Activity [34]: Active; Drug uptake [35]: Active; Drug uptake [36]: Active; Activity [37]: Active; Activity [38]: Active; Activity [39]: Active; Activity [40]: Active; Activity [41]: Active; Activity [42]: Active; Stability [43]: Stable; Activity [44]: Non-toxic; Activity [45]: Non-toxic; Activity [46]: Non-toxic; Activity [47]: Non-toxic; Activity [48]: Non-toxic; Activity [49]: Non-toxic; Activity [50]: Non-toxic; Activity [51]: Non-toxic; Activity [52]: Non-toxic; Activity [53]: Non-toxic; Activity [54]: Non-toxic; IC50 [55]: > 30000 nM
